Where two headings read alike, the source gives them in different places.
What was measured:
[1] = log P determination by LC-MS in the acidic range; assay type: physicochemical
Source text: The LC-MS determination in the acidic range is effected at pH 2.7 using 0.1% aqueous formic acid and acetonitrile (contains 0.1% formic acid) as eluents, linear gradient from 10% acetonitrile to 95% acetonitrile. Alternatively, the determination is effected in the acidic range at pH 2.3 using 0.1% aqueous phosphoric acid and acetonitrile as eluents; linear gradient from 10% acetonitrile to 95% acetonitrile.

Myzus persicae [2] = assay: Myzus persicae - spray test; assay type: in vivo; settings: application rate of 500 g/ha, after 6 days, sprayed Chinese cabbage leaf discs infested by all stages, 100% = all aphids killed
Experimental: Myzus persicae—spray test Solvent: 78 parts by weight of acetone • • 1.5 parts by weight of dimethylformamide Emulsifier: 0.5 part by weight of alkylaryl polyglycol ether To produce an appropriate active ingredient formulation, 1 part by weight of active ingredient is mixed with the specified amounts of solvent and emulsifier, and the concentrate is diluted to the desired concentration with emulsifier-containing water. Discs of Chinese cabbage leaves (Brassica pekinensis) infested by all stages of the green peach aphid (Myzus persicae) are sprayed with an active ingredient formulation of the desired concentration. After 6 days, the efficacy in % is determined. 100% means that all the aphids have been killed; 0% means that no aphids have been killed.

Myzus persicae [3] = assay: Myzus persicae - sachet test; assay type: in vivo; settings: 100% = all animals killed; for pest or weed control at 6 ppm / pest or weed control at 30 ppm: Myzus persicae, read-out: efficacy (kill in %)
In short: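 Green peach aphids feed through a sealed sachet on nutrient medium containing the water-diluted formulation (solvents: 2% N-methylpyrrolidone, 2% diacetone alcohol). Percent mortality read after the chosen time; 100% means all animals killed.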

[4] = application rate of 30 ppm in nutrient medium
[5] = application rate of 6 ppm in nutrient medium
[6] = Table 2, compounds of the formula (I-2), acidic range pH 2.7 or pH 2.3
[7] = reversed-phase HPLC column (C18), pH 2.7, Table 3, HPLC on reversed-phase column (C 18), 55° C., acidic range (pH 2.7 or pH 2.3), read-out: log P (acid)
[8] = reversed-phase HPLC column (C18), pH 2.7, values given in the synthesis examples and NMR lists, read-out: HPLC-MS: log P
[9] = Table 3, HPLC on reversed-phase column (C 18), 55° C., acidic range (pH 2.7 or pH 2.3)
[10] = Table 4, HPLC on reversed-phase column (C 18), 55° C., acidic range (pH 2.7 or pH 2.3)

SMILES | log P (acid) ([1]; LC-MS in the acidic range) | efficacy (kill in %) (Myzus persicae [3]; [4]) [%] | efficacy (kill in %) (Myzus persicae [3]; [5]) [%] | further results
Cc1cccc(Cn2nc(NC(=O)c3cccnc3)cc2C)c1 [Compound I-1-50] | – | 100 | – | efficacy in % (Myzus persicae [2]): 90%
Cc1cc(Cn2nc(NC(=O)c3cccnc3)cc2C)oc(=O)c1 [Compound I-1-154] | – | 100 | 100 | efficacy in % (Myzus persicae [2]): 90%
Cc1cc(NC(=O)c2cccnc2)nn1C(=O)NCc1cccc(Cl)c1 [Compound I-1-324] | 2.39 | 100 | 100 | –
Cc1cc(NC(=O)c2cccnc2)nn1C(=O)NCc1ccc(Cl)cc1 [Compound I-1-325] | 2.34 | 100 | 100 | –
Cc1cc(NC(=O)c2cccnc2)nn1C(=O)NCc1ccccc1F [Compound I-1-326] | 2.04 | 100 | 100 | –
Cc1cc(NC(=O)c2cccnc2)nn1C(=O)NCc1cccc(F)c1 [Compound I-1-327] | 2.1 | 100 | 100 | –
Cc1cc(NC(=O)c2cccnc2)nn1C(=O)NC(C)c1ccc(F)cc1 (stereo not drawn) [Compound I-1-332] | 2.28 | 100 | 100 | –
Cc1cc(NC(=O)c2cccnc2)nn1C(=O)NCc1ncccn1 [Compound I-1-334] | 0.95 | 100 | 100 | –
Cc1cc(NC(=O)c2cccnc2)nn1Cc1ccc2nsnc2c1 [Compound I-1-339] | 1.61 | 100 | – | –
Cc1cc(NC(=O)c2cccnc2)nn1Cc1ccc2ccccc2n1 [Compound I-1-341] | 1.66 | 100 | 100 | –
Cc1cc(NC(=O)c2cncc(F)c2)nn1C(C)(C)C [Compound I-1-348] | 2.13 | 80 | – | –
Cc1nc(NC(=O)c2cccnc2)n[nH]1 [Compound I-2-1] | – | 100 | – | log P (acid) [1, 6]: <−0.23
CCc1nc(NC(=O)c2cccnc2)nn1-c1ccccc1 [Compound I-2-6] | – | 100 | – | log P (acid) [1, 6]: 1.24
O=C(Nc1ncn(Cc2ccccc2Cl)n1)c1cccnc1 [Compound I-2-7, N-[1-(2-Chlorobenzyl)-1H-1,2,4-triazol-3-yl]nicotinamide] | – | – | – | chromatographic logP ([1]; HPLC on a reversed-phase column (C 18), pH 2.7, values given in the synthesis examples and NMR lists, read-out: HPLC-MS: log P): 1.22; chromatographic logP ([1]; reversed-phase HPLC column (C18), pH 2.7, Table 2, compounds of the formula (I-2), acidic range pH 2.7 or pH 2.3, read-out: log P (acid)): 1.22; pest or weed control at 500 g/ha (Myzus persicae [2]; Myzus persicae, foliar, 144 h, read-out: efficacy in %): 100%
Cn1cnc(NC(=O)c2cccnc2)n1 [Compound I-2-14] | – | 100 | – | log P (acid) [1, 6]: <−0.23
CCc1nc(NC(=O)c2cccnc2)nn1C [Compound I-2-17] | – | 100 | – | log P (acid) [1, 6]: 0.01
COCn1cnc(NC(=O)c2cccnc2)n1 [Compound I-2-18] | – | 80 | – | log P (acid) [1, 6]: −0.23

SMILES | log P (acid) ([1]; LC-MS in the acidic range) | efficacy (kill in %) (Myzus persicae [3]; [4]) [%] | efficacy (kill in %) (Myzus persicae [3]; [5]) [%] | further results
O=C(Nc1ncn(Cc2cccc(Cl)c2)n1)c1cccnc1 [Compound I-2-19] | – | 100 | – | log P (acid) [1, 6]: 1.33
Cc1cc(C)nc(-n2cnc(NC(=O)c3cccnc3)n2)n1 [Compound I-2-22] | – | 80 | – | log P (acid) [1, 6]: 0.86
Cc1ccccc1Cn1cnc(NC(=O)c2cccnc2)n1 [Compound I-2-23] | – | 100 | – | log P (acid) [1, 6]: 1.23
CSc1nc(NC(=O)c2cccnc2)nn1C [Compound I-2-26] | – | 100 | – | log P (acid) [1, 6]: 0.32
Cc1nn(-c2ccccn2)nc1NC(=O)c1cccnc1 [Compound I-3-1, N-[5-Methyl-2-(pyridin-2-yl)-2H-1,2,3-triazol-4-yl]nicotinamide] | – | – | – | chromatographic logP [1, 7]: 1.08; chromatographic logP [1, 8]: 1.08; pest or weed control at 6 ppm (Myzus persicae [3]; [5]): 100%; pest or weed control at 30 ppm (Myzus persicae [3]; [4]): 100%
Cn1ncc(NC(=O)c2cccnc2)n1 [Compound I-3-2] | – | 100 | – | log P (acid) [1, 9]: 0.38
O=C(Nc1cnn(-c2ncc(C(F)(F)F)cc2Cl)n1)c1cccnc1 [Compound I-3-5] | – | 100 | – | log P (acid) [1, 9]: 2.12
O=C(Nc1nn(-c2ncccc2Cl)nc1C(F)(F)F)c1cccnc1 [Compound I-3-6] | – | 100 | – | log P (acid) [1, 9]: 1.89
O=C(Nc1cnn(-c2ncccc2Br)n1)c1cccnc1 [Compound I-3-7] | – | 100 | 80 | log P (acid) [1, 9]: 1.33
Cc1nn(-c2ncccc2Cl)nc1NC(=O)c1cccnc1 [Compound I-3-9] | – | 100 | – | log P (acid) [1, 9]: 1.24
CC(C)n1ncc(NC(=O)c2cccnc2)n1 [Compound I-3-10] | – | 100 | – | log P (acid) [1, 9]: 1.09
O=C(Nc1cnn(-c2ccc(C(F)(F)F)cn2)n1)c1cccnc1 [Compound I-3-14, N-{2-[5-(Trifluoromethyl)pyridin-2-yl]-2H-1,2,3-triazol-4-yl}nicotinamide] | – | – | – | chromatographic logP [1, 7]: 1.91; chromatographic logP [1, 8]: 1.91; pest or weed control at 6 ppm (Myzus persicae [3]; [5]): 100%; pest or weed control at 30 ppm (Myzus persicae [3]; [4]): 100%
O=C(Nc1cnn(-c2ncccc2Cl)n1)c1cccnc1 [Compound I-3-16] | – | 100 | – | log P (acid) [1, 9]: 1.32
Cn1nnc(NC(=O)c2cccnc2)n1 [Compound I-4-2] | – | 100 | – | log P (acid) [1, 10]: <−0.23
O=C(Nc1nnn(Cc2ccc(Cl)nc2)n1)c1cccnc1 [Compound I-4-3] | – | 100 | 100 | log P (acid) [1, 10]: 1.05
CC(NC(=O)Cn1nnc(NC(=O)c2cccnc2)n1)c1ccccc1 (stereo not drawn) [Compound I-4-6, N-(2-{2-Oxo-2-[(1-phenylethyl)amino]ethyl}-2H-tetrazol-5-yl)nicotinamide] | – | – | – | chromatographic logP ([1]; reversed-phase HPLC column (C18), pH 2.7, Table 4, HPLC on reversed-phase column (C 18), 55° C., acidic range (pH 2.7 or pH 2.3), read-out: log P (acid)): 1.34; chromatographic logP [1, 8]: 1.34; pest or weed control at 6 ppm (Myzus persicae [3]; [5]): 100%; pest or weed control at 30 ppm (Myzus persicae [3]; [4]): 100%
C=CCn1nnc(NC(=O)c2cccnc2)n1 [Compound I-4-8] | – | 100 | 100 | log P (acid) [1, 10]: 0.60

Further lines, with some results ahead:

log P (acid) ([1]; LC-MS in the acidic range) | SMILES | efficacy (kill in %) (Myzus persicae [3]; [4]) [%] | efficacy (kill in %) (Myzus persicae [3]; [5]) [%] | further results
1.33 | COC(=O)C(C)(C)NC(=O)Cn1nc(NC(=O)c2cncc(F)c2)cc1C [Compound I-1-41] | – | – | efficacy in % (Myzus persicae [2]): 90%
0.79 | COCCn1nc(N(C)C(=O)c2cccnc2)cc1C [Compound I-1-179] | – | – | efficacy in % (Myzus persicae [2]): 100%
2.29 | Cc1cc(NC(=O)c2cccnc2)nn1C(=O)NCc1ccccc1Cl [Compound I-1-323] | 100 | 100 | –
2.12 | Cc1cc(NC(=O)c2cccnc2)nn1C(=O)NCc1ccc(F)cc1 [Compound I-1-328] | 100 | 100 | –
2.22 | Cc1cc(NC(=O)c2cccnc2)nn1C(=O)NC(C)c1ccccc1 (stereo not drawn) [Compound I-1-331] | 100 | 100 | –
1.05 | Cc1cc(NC(=O)c2cccnc2)nn1C(=O)NCc1ccncn1 [Compound I-1-336] | 100 | 100 | –
2 | Cc1cc(NC(=O)c2cccnc2)nn1Cc1nc2cc(Cl)ccc2o1 [Compound I-1-340] | 100 | 100 | –
1.61 | Cc1cc(NC(=O)c2cccnc2)nn1C(C)(C)C [Compound I-1-347] | 100 | 80 | –
1.7 | Cc1cc(NC(=O)c2cccnc2)nn1-c1ccccc1 [Compound I-1-349] | 100 | – | –
2.18 | Cc1cc(NC(=O)c2cncc(F)c2)nn1-c1ccccc1 [Compound I-1-350] | 80 | – | –
1.42 | Cc1cc(NC(=O)c2cccnc2)nn1Cc1cn2nc(Cl)ccc2n1 [Compound I-1-351] | 100 | – | –
1.9 | Cc1ccc2oc(Cn3nc(NC(=O)c4cccnc4)cc3C)nc2c1 [Compound I-1-353] | 100 | 100 | –
